# Results as given in patent US20210300939A1, “Single Molecule Compounds Providing Multi-Target Inhibition of BTK and Other Proteins and Methods of Use Thereof” (SignalRx Pharmaceuticals, Inc., priority 2018, published 2021).
# What was measured:
# Granta519 cells = test: Cell viability (Celltiter-Glo), Granta519; format: cell-based; settings: Homo sapiens, Granta-519, 48 hours
# Protocol: (§1) The results of this experiment are shown in FIGS. 1A-1C, and in Table 7 below. Human mantle cell lymphoma cell lines were grown in 96 well plates with 5000 cells per well in RPMI 1640 media supplemented with 10% fetal bovine serum. Cells were treated for 48 hours with a concentration range of each compound from 50 nM to 50 uM. Cell viability a measure of viable cell numbers was determined using a Celltiter-Glo^R reagent for each concentration in order to construct an IC50 curve for each compound in each cell line.
# [1] = tested on: Human mantle cell lymphoma cell lines; test: Cell viability, mantle cell lymphoma cell lines (overall conclusion); format: cell-based; settings: in vitro, 48 hours
# Protocol: as §1
# Mino cells [2] = test: Cell viability (Celltiter-Glo), Mino; format: cell-based; settings: Homo sapiens, 48 hours
# Protocol: as §1
# PI3K δ = biological target: T1, PI3K δ (Homo sapiens, UniProt O00329); test: PI3K delta inhibition (Thermo Fisher Scientific); format: biochemical; settings: 10-point curve; read-out: Target IC50 PI3K δ
# T1 construct: purchased Thermo Fisher Scientific-Biosciences Life Sciences Solutions, Madison, Wis; (contract assay)
# Protocol: (§2) The BTK, PI3K, and/or bromodomain inhibitory activity of a compound of the invention can be determined by methods known to the skilled artisan, or by procuring relevant analysis by a commercial vendor offering such services. […] In vivo, PI3K inhibition can be determined from target tissue biopsies by standard tissue processing in which cells are disrupted and Western Blot analysis is performed to determine the presence or absence of pAKT (substrate of PI3K) relative to a control sample. PI3K inhibition assays and BTK inhibition assays are known in the art and can be procured commercially through vendors such as Reaction Biology (Malvern, Pa.). The activity of a compound of the invention as an inhibitor of a bromodomain-containing protein, such as a BET protein, including BRD2, BRD3, BRD4, and/or BRDT, or an isoform or mutant thereof, may be determined in vitro, in vivo, or in a cell line. In vitro assays include assays that determine inhibition of bromodomain-containing proteins. Alternatively, inhibitor binding may be determined by running a competition experiment where a provided compound is incubated with a bromodomain-containing protein, such as a BET protein bound to known ligands, labeled or unlabeled. In vitro bromodomain inhibition assays can be performed using Alpha Screen Technology (Perkin Elmer Life and Analytical Sciences, Shelton, Conn.). In vivo bromodomain inhibition can be determined indirectly by evaluating the amount of a protein whose gene transcription is influenced or controlled by the bromodomain protein, for example, MYCN protein transcription is controlled by BRD4 (J. E. Delmore et al., Cell 2011, 146, 904-917; A. Puissant, Cancer Discov. 2013, 3, 308-323).
# (§3) Compounds of the invention were analyzed for their ability to inhibit target proteins in vitro. PI3K alpha, gamma, and delta inhibition activity was determined by Thermo Fisher Scientific-Biosciences Life Sciences Solutions, Madison, Wis. The bromodomain protein inhibition (binding domain 1 and 2 of BRD4) was determined at Reaction Biology Corp., Malvern, Pa. BTK inhibition was performed by Reaction Biology Corp., Malvern, Pa.
# (§4) Additional information regarding the testing procedures is available at each company's website on the internet. The IC50 data was calculated from a 10-point curve by the vendor and is compiled in ranges in the Table 6 below.
# JeKo-1 cells [3] = test: Cell viability (Celltiter-Glo), JeKo-1; format: cell-based; settings: Homo sapiens, 48 hours
# Protocol: as §1
# [4] = biological target: T2, BRD4-2 (binding domain 2 of BRD4) (Homo sapiens, UniProt O60885); test: BRD4 binding domain 2 inhibition (Reaction Biology Corp.); settings: 10-point curve; read-out: Target IC50 BRD4-2
# T2 construct: purchased Reaction Biology Corp., Malvern, Pa; (contract assay)
# Protocol: as §2, §3, §4
# BTK (WT) = biological target: T3, BTK (WT) (Homo sapiens, UniProt Q06187); test: native BTK inhibition (Reaction Biology Corp.); format: biochemical; settings: 10-point curve; read-out: Target IC50 BTK (WT)
# T3 construct: purchased Reaction Biology Corp., Malvern, Pa; (contract assay)
# Protocol: as §3, §4
# [5] = biological target: T4, BRD4-1 (binding domain 1 of BRD4) (Homo sapiens, UniProt O60885); test: BRD4 binding domain 1 inhibition (Reaction Biology Corp.); settings: 10-point curve; read-out: Target IC50 BRD4-1
# T4 construct: purchased Reaction Biology Corp., Malvern, Pa; (contract assay)
# Protocol: as §2, §3, §4
# PI3K γ = biological target: T5, PI3K γ (Homo sapiens, UniProt P48736); test: PI3K gamma inhibition (Thermo Fisher Scientific); format: biochemical; settings: 10-point curve; read-out: Target IC50 PI3K γ
# T5 construct: purchased Thermo Fisher Scientific-Biosciences Life Sciences Solutions, Madison, Wis; (contract assay)
# Protocol: as §2, §3, §4
# BTK (C481S) = biological target: T6, BTK (C481S) (Homo sapiens, UniProt Q06187, C481S); test: BTK cysteine mutant C481S inhibition (Reaction Biology Corp.); format: biochemical; settings: for IC50: 10-point curve, read-out: Target IC50 BTK (C481S); for Ratio C481S/WT: ratio of the BTK IC50 values, C481S over wild-type
# T6 construct: purchased Reaction Biology Corp., Malvern, Pa; (contract assay)
# Protocol: as §3, §4
# PI3K α = biological target: T7, PI3K α (Homo sapiens, UniProt P42336); test: PI3K alpha inhibition (Thermo Fisher Scientific); format: biochemical; settings: 10-point curve; read-out: Target IC50 PI3K α
# T7 construct: purchased Thermo Fisher Scientific-Biosciences Life Sciences Solutions, Madison, Wis; (contract assay)
# Protocol: as §2, §3, §4
# JeKo-1 cells [6] = test: Percentage cells in apoptosis, JeKo-1; format: cell-based, human
# Description: (§5) Additionally apoptosis data was obtained in both JeKo and Mino cells for compound 7.
# Mino cells [7] = test: Percentage cells in apoptosis, Mino; format: cell-based, human; settings: 24-hour
# Description: as §5
# T5 sequence (P48736 whole entry): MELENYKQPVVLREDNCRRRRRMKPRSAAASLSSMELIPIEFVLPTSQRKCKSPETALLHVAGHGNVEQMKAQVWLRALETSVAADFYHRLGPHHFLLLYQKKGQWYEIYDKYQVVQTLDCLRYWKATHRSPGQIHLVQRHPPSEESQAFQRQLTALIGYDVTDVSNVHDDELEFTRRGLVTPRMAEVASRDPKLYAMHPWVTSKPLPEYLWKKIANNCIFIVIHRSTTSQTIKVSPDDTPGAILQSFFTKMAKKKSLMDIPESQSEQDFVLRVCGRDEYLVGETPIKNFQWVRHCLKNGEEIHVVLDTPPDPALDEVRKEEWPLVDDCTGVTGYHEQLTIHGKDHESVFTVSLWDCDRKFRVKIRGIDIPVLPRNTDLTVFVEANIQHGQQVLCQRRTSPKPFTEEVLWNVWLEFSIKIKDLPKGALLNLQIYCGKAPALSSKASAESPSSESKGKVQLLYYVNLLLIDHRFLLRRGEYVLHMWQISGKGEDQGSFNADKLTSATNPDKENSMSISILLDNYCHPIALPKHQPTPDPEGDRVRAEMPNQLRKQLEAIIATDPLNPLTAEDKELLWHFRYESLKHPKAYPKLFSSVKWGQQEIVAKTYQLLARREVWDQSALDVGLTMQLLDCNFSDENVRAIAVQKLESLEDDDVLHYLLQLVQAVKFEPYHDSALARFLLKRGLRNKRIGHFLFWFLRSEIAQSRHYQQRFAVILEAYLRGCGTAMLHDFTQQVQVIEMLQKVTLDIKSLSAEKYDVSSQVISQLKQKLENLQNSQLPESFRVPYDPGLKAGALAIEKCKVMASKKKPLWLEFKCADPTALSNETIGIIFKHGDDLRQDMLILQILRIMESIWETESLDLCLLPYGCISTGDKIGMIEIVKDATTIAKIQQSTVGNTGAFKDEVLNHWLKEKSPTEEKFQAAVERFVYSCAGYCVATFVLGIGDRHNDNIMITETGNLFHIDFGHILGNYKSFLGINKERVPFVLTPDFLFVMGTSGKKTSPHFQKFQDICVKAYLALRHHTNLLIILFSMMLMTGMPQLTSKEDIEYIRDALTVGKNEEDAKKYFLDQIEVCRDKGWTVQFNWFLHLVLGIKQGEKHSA
# T1 sequence (O00329 whole entry): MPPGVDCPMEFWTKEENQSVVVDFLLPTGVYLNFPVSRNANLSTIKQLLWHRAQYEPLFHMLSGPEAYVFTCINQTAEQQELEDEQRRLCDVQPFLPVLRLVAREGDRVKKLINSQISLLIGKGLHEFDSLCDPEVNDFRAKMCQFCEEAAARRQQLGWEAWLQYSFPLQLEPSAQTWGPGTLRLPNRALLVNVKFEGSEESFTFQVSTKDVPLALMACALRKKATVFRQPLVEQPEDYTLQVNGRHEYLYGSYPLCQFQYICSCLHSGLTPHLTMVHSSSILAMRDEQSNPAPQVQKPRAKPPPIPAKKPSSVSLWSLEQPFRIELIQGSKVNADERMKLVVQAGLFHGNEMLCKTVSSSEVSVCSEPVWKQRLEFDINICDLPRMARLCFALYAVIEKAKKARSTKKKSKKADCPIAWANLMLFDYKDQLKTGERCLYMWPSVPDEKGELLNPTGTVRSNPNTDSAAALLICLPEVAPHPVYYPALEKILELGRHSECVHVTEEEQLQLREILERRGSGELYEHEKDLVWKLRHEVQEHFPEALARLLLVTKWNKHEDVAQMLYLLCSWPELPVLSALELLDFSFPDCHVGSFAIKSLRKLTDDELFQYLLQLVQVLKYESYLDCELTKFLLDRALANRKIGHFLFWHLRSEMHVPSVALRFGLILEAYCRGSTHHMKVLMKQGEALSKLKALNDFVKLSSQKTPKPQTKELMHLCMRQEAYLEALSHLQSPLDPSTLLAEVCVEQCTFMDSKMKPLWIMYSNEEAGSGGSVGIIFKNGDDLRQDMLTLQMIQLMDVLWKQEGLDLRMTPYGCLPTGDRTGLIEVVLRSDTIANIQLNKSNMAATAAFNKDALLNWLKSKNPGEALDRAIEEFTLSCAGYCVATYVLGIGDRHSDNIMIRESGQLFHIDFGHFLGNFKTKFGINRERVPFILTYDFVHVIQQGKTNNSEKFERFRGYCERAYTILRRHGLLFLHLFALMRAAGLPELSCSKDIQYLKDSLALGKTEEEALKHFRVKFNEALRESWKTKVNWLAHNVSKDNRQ
# T1 sequence (P27986 whole entry partner): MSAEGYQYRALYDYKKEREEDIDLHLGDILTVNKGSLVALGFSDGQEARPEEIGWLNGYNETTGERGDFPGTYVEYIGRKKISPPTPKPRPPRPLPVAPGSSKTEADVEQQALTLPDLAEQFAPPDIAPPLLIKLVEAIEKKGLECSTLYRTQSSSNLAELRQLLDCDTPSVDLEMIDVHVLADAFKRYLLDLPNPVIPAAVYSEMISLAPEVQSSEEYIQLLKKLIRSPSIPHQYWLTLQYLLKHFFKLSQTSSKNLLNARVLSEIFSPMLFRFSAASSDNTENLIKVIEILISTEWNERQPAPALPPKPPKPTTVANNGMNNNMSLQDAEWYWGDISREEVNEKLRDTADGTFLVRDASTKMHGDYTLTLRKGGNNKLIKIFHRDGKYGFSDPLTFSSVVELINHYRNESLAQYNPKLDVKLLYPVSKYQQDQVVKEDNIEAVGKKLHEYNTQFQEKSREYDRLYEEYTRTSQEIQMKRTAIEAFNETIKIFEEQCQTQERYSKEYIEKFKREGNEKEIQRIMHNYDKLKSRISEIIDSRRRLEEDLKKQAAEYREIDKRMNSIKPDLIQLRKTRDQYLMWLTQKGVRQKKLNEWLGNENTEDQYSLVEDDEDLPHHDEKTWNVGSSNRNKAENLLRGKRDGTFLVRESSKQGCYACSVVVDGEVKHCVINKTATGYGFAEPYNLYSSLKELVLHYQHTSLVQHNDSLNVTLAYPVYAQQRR
# T6 sequence (Q06187 whole entry C481S): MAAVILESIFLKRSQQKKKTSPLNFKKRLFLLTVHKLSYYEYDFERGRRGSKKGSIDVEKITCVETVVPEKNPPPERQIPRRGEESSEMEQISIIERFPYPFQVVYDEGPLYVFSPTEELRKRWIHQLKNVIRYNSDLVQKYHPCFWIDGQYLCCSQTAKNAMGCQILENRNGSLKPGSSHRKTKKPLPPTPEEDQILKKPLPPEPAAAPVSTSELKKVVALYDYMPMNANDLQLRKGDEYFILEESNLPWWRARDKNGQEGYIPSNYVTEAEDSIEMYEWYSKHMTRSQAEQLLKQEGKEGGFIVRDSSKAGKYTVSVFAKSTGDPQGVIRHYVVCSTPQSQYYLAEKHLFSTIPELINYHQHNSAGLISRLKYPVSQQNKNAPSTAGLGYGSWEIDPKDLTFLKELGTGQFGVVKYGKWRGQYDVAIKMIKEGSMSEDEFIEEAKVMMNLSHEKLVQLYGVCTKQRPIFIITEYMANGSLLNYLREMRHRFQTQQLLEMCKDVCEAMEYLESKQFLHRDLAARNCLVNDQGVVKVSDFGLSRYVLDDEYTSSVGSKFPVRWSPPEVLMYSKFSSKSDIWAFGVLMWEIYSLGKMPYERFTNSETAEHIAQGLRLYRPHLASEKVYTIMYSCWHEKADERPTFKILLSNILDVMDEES
# T3 sequence (Q06187 whole entry): as the sequence (Q06187 whole entry C481S) above, with S481C counted along it
# T7 sequence (P42336 whole entry): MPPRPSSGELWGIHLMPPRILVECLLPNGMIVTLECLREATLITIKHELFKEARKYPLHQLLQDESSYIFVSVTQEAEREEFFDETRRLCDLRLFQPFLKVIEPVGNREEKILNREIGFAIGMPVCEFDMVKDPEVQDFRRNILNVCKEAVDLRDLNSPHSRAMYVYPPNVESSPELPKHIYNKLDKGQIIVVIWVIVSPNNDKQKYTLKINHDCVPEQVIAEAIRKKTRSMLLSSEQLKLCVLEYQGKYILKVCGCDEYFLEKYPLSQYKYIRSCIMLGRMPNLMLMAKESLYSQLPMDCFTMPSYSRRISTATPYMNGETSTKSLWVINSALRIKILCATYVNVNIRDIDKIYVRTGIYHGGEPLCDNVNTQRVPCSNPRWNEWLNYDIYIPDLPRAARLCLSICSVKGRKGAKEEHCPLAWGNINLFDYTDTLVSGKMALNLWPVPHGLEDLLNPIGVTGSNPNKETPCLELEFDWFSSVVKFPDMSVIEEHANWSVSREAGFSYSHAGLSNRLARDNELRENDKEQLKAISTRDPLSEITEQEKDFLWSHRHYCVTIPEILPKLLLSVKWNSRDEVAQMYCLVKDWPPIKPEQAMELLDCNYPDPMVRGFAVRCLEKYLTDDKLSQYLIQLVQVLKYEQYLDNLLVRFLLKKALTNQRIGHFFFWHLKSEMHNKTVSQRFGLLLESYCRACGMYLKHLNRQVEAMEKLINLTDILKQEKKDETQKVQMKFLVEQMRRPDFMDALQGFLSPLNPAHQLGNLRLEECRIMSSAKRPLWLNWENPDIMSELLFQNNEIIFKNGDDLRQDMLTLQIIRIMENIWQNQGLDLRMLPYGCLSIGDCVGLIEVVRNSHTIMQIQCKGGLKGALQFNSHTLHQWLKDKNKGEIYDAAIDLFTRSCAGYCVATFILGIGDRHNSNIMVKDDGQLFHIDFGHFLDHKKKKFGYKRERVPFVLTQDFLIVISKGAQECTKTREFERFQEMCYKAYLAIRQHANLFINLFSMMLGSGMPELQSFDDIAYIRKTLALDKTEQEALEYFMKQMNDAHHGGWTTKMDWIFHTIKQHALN
# T7 sequence (P27986 whole entry partner): as the sequence (P27986 whole entry partner) above
SMILES,IC50 (PI3K δ),IC50 [4],IC50 (BTK (WT)),IC50 [5],IC50 (PI3K γ),IC50 (BTK (C481S)),IC50 (PI3K α),Ratio C481S/WT (BTK (C481S)),other results
"O=c1cc(N2CCOCC2)oc2c(-c3ccc4c(c3)OCCO4)csc12 [Compound 0, reference compound]",< 1 µM,1 to 10 µM,10 to 30 µM,< 1 µM,< 1 µM,10 to 30 µM,–,–,IC50 (Granta519 cells): 1 to 10 µM; Potency in reducing mantle cell lymphoma viability as compared to Ibrutinib [1]: markedly more potent; IC50 (Mino cells [2]): < 1 µM; IC50 (JeKo-1 cells [3]): < 1 µM
"C=CC(=O)Nc1cccc(-c2csc3c(=S)cc(N4CCOCC4)oc23)c1 [Compound 2, 1-[m-(5-Morpholino-7-thioxo-4-oxa-1-thia-3-indenyl)phenylamino]-2-propen-1-one]",< 1 µM,1 to 10 µM,1 to 10 µM,10 to 30 µM,< 1 µM,10 to 30 µM,< 1 µM,8.1,–
"C=CC(=O)Nc1cccc(-c2csc3c(=O)cc(N4CCNCC4)oc23)c1.O=C(O)C(F)(F)F [Compound 3, 1-{m-[7-Oxo-5-(1-piperazinyl)-4-oxa-1-thia-3-indenyl]phenylamino}-2-propen-1-one]",> 50 µM,1 to 10 µM,1 to 10 µM,< 1 µM,> 50 µM,30 to 50 µM,> 50 µM,24.5,–
"C=CC(=O)N1CCOc2ccc(-c3csc4c(=O)cc(N5CCN(C(=O)OC(C)(C)C)CC5)oc34)cc21 [Compound 4, tert-butyl 4-[3-(4-acryloyl-1-oxa-4-aza-3,4-dihydro-2H-naphth-6-yl)-7-oxo-4-oxa-1-thia-5-indenyl]-1-piperazinecarboxylate]",1 to 10 µM,1 to 10 µM,< 1 µM,< 1 µM,10 to 30 µM,10 to 30 µM,10 to 30 µM,212,–
"C=CC(=O)N1CCOc2ccc(-c3csc4c(=O)cc(N5CCNCC5)oc34)cc21 [Compound 5, 1-{7-[7-Oxo-5-(1-piperazinyl)-4-oxa-1-thia-3-indenyl]-4-oxa-1-aza-2,3-dihydro-1H-naphth-1-yl}-2-propen-1-one]",1 to 10 µM,1 to 10 µM,< 1 µM,< 1 µM,> 50 µM,10 to 30 µM,10 to 30 µM,52.0,–
"C=CC(=O)N1CCOc2ccc(-c3csc4c(=O)cc(N5CCN(C)CC5)oc34)cc21 [Compound 6, 1-(7[5-(4-Methyl-1-piperazinyl)-7-oxo-4-oxa-1-thia-3-indenyl]-4-oxa-1-aza-2,3-dihydro-1H-naphth-1-yl]-2-propen-1-one]",1 to 10 µM,10 to 30 µM,< 1 µM,1 to 10 µM,> 50 µM,1 to 10 µM,30 to 50 µM,11.2,–
"C=CC(=O)Nc1cc(OC)cc(-c2csc3c(=O)cc(N4CCOCC4)oc23)c1 [Compound 8, 1-[5-Methoxy-3-(5-morpholino-7-oxo-4-oxa-1-thia-3-indenyl)phenylamino]-2-propen-1-one]",< 1 µM,1 to 10 µM,< 1 µM,< 1 µM,< 1 µM,> 50 µM,< 1 µM,>60,–
"CCCCC/C=C/C(=O)Nc1cccc(-c2csc3c(=O)cc(N4CCOCC4)oc23)c1 [Compound 10, (E)-1-[m-(5-Morpholino-7-oxo-4-oxa-1-thia-3-indenyl)phenylamino]-2-octen-1-one]",1 to 10 µM,10 to 30 µM,–,1 to 10 µM,10 to 30 µM,–,1 to 10 µM,–,–
"N#C/C(=C\C1CC1)C(=O)Nc1cccc(-c2csc3c(=O)cc(N4CCOCC4)oc23)c1 [Compound 11, (E)-3-Cyclopropyl-2-{[m-(5-morpholino-7-oxo-4-oxa-1-thia-3-indenyl)phenylamino]carbonyl}acrylonitrile]",< 1 µM,< 1 µM,10 to 30 µM,1 to 10 µM,1 to 10 µM,10 to 30 µM,< 1 µM,1.3,–
"CC#CC(=O)Nc1cccc(-c2csc3c(=O)cc(N4CCOCC4)oc23)c1 [Compound 12, 1-[m-(5-Morpholino-7-oxo-4-oxa-1-thia-3-indenyl)phenylamino]-2-butyn-1-one]",< 1 µM,< 1 µM,1 to 10 µM,< 1 µM,< 1 µM,10 to 30 µM,< 1 µM,15.8,–
"C=CS(=O)(=O)N1CCOc2ccc(-c3csc4c(=O)cc(N5CCOCC5)oc34)cc21 [Compound 21, 5-Morpholino-3-[4-(vinylsulfonyl)-1-oxa-4-aza-3,4-dihydro-2H-naphth-6-yl]-4-oxa-1-thia-7-indenone]",< 1 µM,< 1 µM,< 1 µM,< 1 µM,< 1 µM,< 1 µM,< 1 µM,1402,–
"C=CS(=O)(=O)Nc1cccc(-c2csc3c(=O)cc(N4CCOCC4)oc23)c1 [II-18, 5-morpholino-3-[m-(vinylsulfonylamino)phenyl]-4-oxa-1-thia-7-indenone]",< 1 µM,< 1 µM,< 1 µM,< 1 µM,< 1 µM,< 1 µM,< 1 µM,>20K,–
C=CC(=O)N1CCC[C@@H](n2nc(-c3ccc(Oc4ccccc4)cc3)c3c(N)ncnc32)C1 [Ibrutinib],–,–,–,–,–,–,–,–,"IC50 (Granta519 cells): 10 to 30 µM; IC50 (Mino cells [2]): 1 to 10 µM; Percentage cells in apoptosis (JeKo-1 cells [6]; JeKo-1, 24-hour, Early): + (less than 5%); Percentage cells in apoptosis (JeKo-1 cells [6]; JeKo-1, 24-hour, Late): + (less than 5%); Percentage cells in apoptosis (JeKo-1 cells [6]; JeKo-1, 24-hour, Total): + (less than 5%); Percentage cells in apoptosis (JeKo-1 cells [6]; JeKo-1, 48-hour, Early): + (less than 5%); Percentage cells in apoptosis (JeKo-1 cells [6]; JeKo-1, 48-hour, Late): + (less than 5%); Percentage cells in apoptosis (JeKo-1 cells [6]; JeKo-1, 48-hour, Total): ++ (between 5% and 10%); Percentage cells in apoptosis (Mino cells [7]; Early): ++ (between 5% and 10%); Percentage cells in apoptosis (Mino cells [7]; Late): + (less than 5%); Percentage cells in apoptosis (Mino cells [7]; Total): +++ (between 10% and 30%); IC50 (JeKo-1 cells [3]): > 50 µM"
CN[C@@H]1C[C@H]2O[C@@](C)([C@@H]1OC)n1c3ccccc3c3c4c(c5c6ccccc6n2c5c31)C(=O)NC4 [Staurosporine],–,–,–,–,–,–,–,–,"Percentage cells in apoptosis (JeKo-1 cells [6]; JeKo-1, 24-hour, Early): ++ (between 5% and 10%); Percentage cells in apoptosis (JeKo-1 cells [6]; JeKo-1, 24-hour, Late): + (less than 5%); Percentage cells in apoptosis (JeKo-1 cells [6]; JeKo-1, 24-hour, Total): +++ (between 10% and 30%); Percentage cells in apoptosis (JeKo-1 cells [6]; JeKo-1, 48-hour, Early): +++ (between 10% and 30%); Percentage cells in apoptosis (JeKo-1 cells [6]; JeKo-1, 48-hour, Late): +++ (between 10% and 30%); Percentage cells in apoptosis (JeKo-1 cells [6]; JeKo-1, 48-hour, Total): ++++ (between 30% and 50%); Percentage cells in apoptosis (Mino cells [7]; Early): ++++ (between 30% and 50%); Percentage cells in apoptosis (Mino cells [7]; Late): ++++ (between 30% and 50%); Percentage cells in apoptosis (Mino cells [7]; Total): +++++ (more than 50%)"
